Source: the supplement of paper PMC11061612

Experiments:
Experiment in all cases: combination Emax (second highest fraction inhibited in the dose matrix, 72 h); higher = more inhibition; extreme values may be limits of the assay
[1] = system: SK-LMS-1 (Other Solid Carcinomas)
Procedure, shortened: (§1)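 Cell lines in DMEM/F12 or RPMI with 10% FBS were plated in 1536-well plates, held 24 hours at 37°C, 5% CO2, then given two-drug dose matrices for 72 hours (DMSO typically 0.2%). Viability was read by CellTiter-Glo 2.0 luminescence and scaled as inhibition from 0 (vehicle wells) to 1 (blank wells). Combination Emax is the second-highest inhibition in the matrix; Bliss excess is observed combination effect minus expected EA + EB − EA·EB, EA and EB being single-agent effects.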

[2] = system: YT (Other Blood Carcinomas)
Procedure, shortened: as §1

[3] = system: SW48 (Colorectal Carcinoma)
Procedure, shortened: as §1

[4] = system: DOK (Oral Cavity Carcinoma)
Procedure, shortened: as §1

[5] = system: SK-MEL-1 (Melanoma)
Procedure, shortened: as §1

[6] = system: SLVL (B-Cell Non-Hodgkin's Lymphoma)
Procedure, shortened: as §1

[7] = system: HCT-116 (Colorectal Carcinoma)
Procedure, shortened: as §1

[8] = system: D-392MG (Glioblastoma)
Procedure, shortened: as §1

[9] = system: SNG-M (Endometrial Carcinoma)
Procedure, shortened: as §1

[10] = system: Saos-2 (Osteosarcoma)
Procedure, shortened: as §1

[11] = system: FU-OV-1 (Ovarian Carcinoma)
Procedure, shortened: as §1

[12] = system: H4 (Low Grade Glioma)
Procedure, shortened: as §1

[13] = system: SW948 (Colorectal Carcinoma)
Procedure, shortened: as §1

[14] = system: MSTO-211H (Mesothelioma)
Procedure, shortened: as §1

[15] = system: NOMO-1 (Acute Myeloid Leukemia)
Procedure, shortened: as §1

[16] = system: P31-FUJ (Acute Myeloid Leukemia)
Procedure, shortened: as §1

[17] = system: MEG-01 (Chronic Myelogenous Leukemia)
Procedure, shortened: as §1

[18] = system: TC-YIK (Other Solid Carcinomas)
Procedure, shortened: as §1

[19] = system: D-283MED (Other Solid Carcinomas)
Procedure, shortened: as §1

[20] = system: HCC38 (Breast Carcinoma)
Procedure, shortened: as §1

Compound | combination Emax [1] | combination Emax [2] | combination Emax [3] | combination Emax [4] | combination Emax [5] | combination Emax [6] | combination Emax [7] | combination Emax [8] | combination Emax [9] | combination Emax [10] | combination Emax [11] | combination Emax [12] | combination Emax [13] | combination Emax [14] | combination Emax [15] | combination Emax [16] | combination Emax [17] | combination Emax [18] | combination Emax [19] | combination Emax [20]
C[C@@H](Nc1cc(F)cc(F)c1)c1cc(C(=O)N(C)C)cc2c(=O)cc(N3CCOCC3)oc12 [AZD8186] + C1CN(CCC1(C(=O)N[C@@H](CCO)C2=CC=C(C=C2)Cl)N)C3=NC=NC4=C3C=CN4 [AZD5363] (first compound max 10 µM, 7x7, partner max 10 µM) | 0.494 | 0.247 | 0.557 | 0.655 | 0.154 | 0.709 | 0.47 | 0.363 | 0.429 | 0.425 | 0.401 | 0.597 | 0.656 | 0.265 | 0.45 | 0.521 | 0.226 | 0.294 | 0.485 | 0.262
C[C@@H](Nc1cc(F)cc(F)c1)c1cc(C(=O)N(C)C)cc2c(=O)cc(N3CCOCC3)oc12 [AZD8186] + CC(=O)c1c(C)c2cnc(Nc3ccc(N4CCNCC4)cn3)nc2n(C2CCCC2)c1=O [Palbociclib] (first compound max 10 µM, 7x7, partner max 10 µM) | 0.808 | 0.448 | 0.617 | 0.538 | 0.265 | 0.439 | 0.684 | 0.446 | 0.432 | 0.329 | 0.444 | 0.697 | 0.433 | 0.428 | 0.568 | 0.277 | 0.182 | 0.741 | 0.831 | 0.209
C[C@@H](Oc1cc(-c2cnn(C3CCNCC3)c2)cnc1N)c1c(Cl)ccc(F)c1Cl [Crizotinib] + CC1=C(C(=CC=C1)Cl)NC(=O)C2=CN=C(S2)NC3=CC(=NC(=N3)C)N4CCN(CC4)CCO [Dasatinib] (first compound max 10 µM, 7x7, partner max 2 µM) | 0.949 | 0.885 | 0.892 | 1 | 0.916 | 0.761 | 0.95 | 0.921 | 0.973 | 0.986 | 0.682 | 0.963 | 0.793 | 0.674 | 0.528 | 0.792 | 1 | 0.796 | 0.979 | 0.348
C[C@@H](Oc1cc(-c2cnn(C3CCNCC3)c2)cnc1N)c1c(Cl)ccc(F)c1Cl [Crizotinib] + Cn1cnc2c(F)c(Nc3ccc(Br)cc3Cl)c(C(=O)NOCCO)cc21 [Selumetinib] (first compound max 10 µM, 7x7, partner max 10 µM) | 0.78 | 0.621 | 0.95 | 0.933 | 0.916 | 0.742 | 0.964 | 0.572 | 0.783 | 0.883 | 0.673 | 0.787 | 0.899 | 0.576 | 0.889 | 0.755 | 1 | 0.858 | 0.973 | 0.0593
O=C(c1cc(Cc2n[nH]c(=O)c3ccccc23)ccc1F)N1CCN(C(=O)C2CC2)CC1 [Olaparib] + CC1(C)CCC(CN2CCN(c3ccc(C(=O)NS(=O)(=O)c4ccc(NCC5CCOCC5)c([N+](=O)[O-])c4)c(Oc4cnc5[nH]ccc5c4)c3)CC2)=C(c2ccc(Cl)cc2)C1 [Venetoclax] (first compound max 10 µM, 7x7, partner max 1 µM) | 0.183 | 0.276 | 0.175 | 0.108 | 0.151 | 0.7 | 0.384 | 0.114 | 0.179 | 0.249 | 0.199 | 0.267 | 0.122 | 0.0774 | 0.383 | 0.166 | 0.109 | 0.403 | 0.666 | 0.179
O=C(c1cc(Cc2n[nH]c(=O)c3ccccc23)ccc1F)N1CCN(C(=O)C2CC2)CC1 [Olaparib] + CN(CC[C@H](CSC1=CC=CC=C1)NC2=C(C=C(C=C2)S(=O)(=O)NC(=O)C3=CC=C(C=C3)N4CCC(CC4)[C@H](C5=CC=CC=C5C6=CC=C(C=C6)Cl)O)S(=O)(=O)C(F)(F)F)CCO [AZD4320] (first compound max 10 µM, 7x7, partner max 1 µM) | 0.494 | 0.343 | 0.687 | 0.191 | 0.42 | 0.982 | 0.509 | 0.321 | 0.401 | 0.326 | 0.226 | 0.389 | 0.303 | 0.456 | 0.348 | 0.568 | 0.505 | 0.984 | 0.914 | 0.482
O=C(c1cc(Cc2n[nH]c(=O)c3ccccc23)ccc1F)N1CCN(C(=O)C2CC2)CC1 [Olaparib] + COc1nnc2ccc(N3CCC(c4ccc(OCCN5CCN(C)C(=O)[C@H]5C)cc4)CC3)nn12 [AZD5153] (first compound max 10 µM, 7x7, partner max 1 µM) | 0.544 | 0.53 | 0.561 | 0.445 | 0.303 | 0.685 | 0.741 | 0.405 | 0.47 | 0.454 | 0.59 | 0.658 | 0.428 | 0.246 | 0.939 | 0.57 | 0.76 | 0.85 | 0.881 | 0.412
O=C(c1cc(Cc2n[nH]c(=O)c3ccccc23)ccc1F)N1CCN(C(=O)C2CC2)CC1 [Olaparib] + Cc1c2c(nn1C)CSCc1cc(n(C)n1)CSc1cc(c3ccccc3c1)OCCCc1c(C(=O)O)n(C)c3c-2c(Cl)ccc13 [AZD5991] (first compound max 10 µM, 7x7, partner max 1 µM) | 0.165 | 1 | 0.178 | 0.381 | 0.127 | 0.362 | 0.37 | 0.142 | 0.234 | 0.384 | 0.199 | 0.393 | 0.158 | 0.0433 | 0.771 | 0.964 | 0.116 | 0.449 | 0.9 | 0.156
N#Cc1cnc(Nc2cc(NC[C@H]3CNCCO3)c(C(F)(F)F)cn2)cn1 [SRA737] + C=CCn1c(=O)c2cnc(Nc3ccc(N4CCN(C)CC4)cc3)nc2n1-c1cccc(C(C)(C)O)n1 [AZD1775] (first compound max 10 µM, partner max 1 µM) | 0.649 | 1 | 0.764 | 0.481 | 0.277 | 0.935 | 0.758 | 0.518 | 0.883 | 0.811 | 0.632 | 0.792 | 0.807 | 0.726 | 0.988 | 0.973 | 0.935 | 0.858 | 1 | 0.576
N#Cc1cnc(Nc2cc(NC[C@H]3CNCCO3)c(C(F)(F)F)cn2)cn1 [SRA737] + CCc1c2c(nc3ccc(O)cc13)-c1cc3c(c(=O)n1C2)COC(=O)[C@]3(O)CC [SN-38] (first compound max 10 µM, 7x7, partner max 0.3 µM) | 0.89 | 0.987 | 0.854 | 0.582 | 0.486 | 0.945 | 0.818 | 0.453 | 0.786 | 0.948 | 0.495 | 0.832 | 0.834 | 0.705 | 0.997 | 0.984 | 0.946 | 1 | 0.994 | 0.682
N#Cc1cnc(Nc2cc(NC[C@H]3CNCCO3)c(C(F)(F)F)cn2)cn1 [SRA737] + Nc1ccn([C@@H]2O[C@H](CO)[C@@H](O)C2(F)F)c(=O)n1 [Gemcitabine] (first compound max 10 µM, 7x7, partner max 0.3 µM) | 0.855 | 1 | 0.841 | 0.704 | 0.482 | 0.961 | 0.873 | 0.611 | 0.869 | 0.817 | 0.584 | 0.953 | 0.828 | 0.83 | 1 | 1 | 0.883 | 0.872 | 1 | 0.731
CC1(C)CCC(CN2CCN(c3ccc(C(=O)NS(=O)(=O)c4ccc(NCC5CCOCC5)c([N+](=O)[O-])c4)c(Oc4cnc5[nH]ccc5c4)c3)CC2)=C(c2ccc(Cl)cc2)C1 [Venetoclax] + CS(=O)(=O)CCNCc1ccc(-c2ccc3ncnc(Nc4ccc(OCc5cccc(F)c5)c(Cl)c4)c3c2)o1 [Lapatinib] (first compound max 1 µM, 7x7, partner max 10 µM) | 0.212 | 0.295 | 0.391 | 0.645 | 0.327 | 0.26 | 0.391 | 0.0713 | 0.247 | 0.214 | 0.324 | 0.171 | 0.352 | 0.299 | 0.319 | 0.581 | 0.485 | 0.294 | 0.927 | 0.169
